Assays:
blackgrass [1] = test: Test B pre/postemergence blackgrass; assay type: in vivo, Alopecurus myosuroides
Outline: (§1)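 Herbicidal effect was estimated by eye on a ten-point control scale after plants spent twelve to sixteen days in a greenhouse following soil or foliar treatment. Foliar sprays targeted plants at one to four leaves; all doses were formulated in a non-phytotoxic solvent with surfactant.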

giant foxtail = test: Test B pre/postemergence giant foxtail; assay type: in vivo, Setaria faberii
Outline: as §1

wheat = test: Test B pre/postemergence wheat; assay type: in vivo, Triticum aestivum
Outline: as §1

purple nutsedge = test: Test B pre/postemergence purple nutsedge; assay type: in vivo, Cyperus rotundus
Outline: as §1

winter wheat [2] = test: Test E winter wheat; assay type: in vivo, Triticum aestivum; conditions: Postemergence; for Wheat (winter) plant response rating: Rate 250 g/ha
Outline: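 Postemergence: spray at 1–4 leaf stage, soil 60:40 sandy loam:potting mix; solvent + surfactant formulation; greenhouse 21–28 d; visual injury vs untreated controls.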

blackgrass [3] = test: Test E blackgrass; assay type: in vivo, Alopecurus myosuroides; conditions: Preemergence; for Blackgrass plant response rating (0 to 100 scale): Rate 250 g/ha
green foxtail = test: Test E green foxtail; assay type: in vivo, Setaria viridis; conditions: Preemergence; for Green foxtail plant response rating (0 to 100 scale): Rate 250 g/ha
Italian ryegrass = test: Test E Italian ryegrass; assay type: in vivo, Lolium multiflorum; conditions: Preemergence; for I. Ryegrass plant response rating (0 to 100 scale): Rate 250 g/ha
winter wheat [4] = test: Test E winter wheat; assay type: in vivo, Triticum aestivum; conditions: Preemergence; for Wheat (winter) plant response rating (0 to 100 scale): Rate 250 g/ha
wild oat = test: Test E wild oat; assay type: in vivo, Avena fatua; conditions: Preemergence; for Wild oat plant response rating (0 to 100 scale): Rate 250 g/ha
winter barley = test: Test E winter barley; assay type: in vivo, Hordeum vulgare; conditions: Preemergence; for Barley (winter) plant response rating (0 to 100 scale): Rate 250 g/ha
[5] = Preemergence, Rate 62 g/ha, scale of 0 to 10 where 0 is no effect and 10 is complete control
[6] = Preemergence, Rate 250 g/ha, scale of 0 to 10 where 0 is no effect and 10 is complete control
[7] = Preemergence, Rate 500 g/ha, scale of 0 to 10 where 0 is no effect and 10 is complete control
[8] = Rate 62 g/ha, Postemergence, scale of 0 to 10 where 0 is no effect and 10 is complete control
[9] = Rate 125 g/ha, Postemergence, scale 0 to 10
[10] = Rate 125 g/ha, Preemergence, scale of 0 to 10 where 0 is no effect and 10 is complete control
[11] = Rate 500 g/ha, Postemergence, scale 0 to 10
[12] = Rate 500 g/ha, 0 to 100 scale, 0 is no effect, 100 is complete control
[13] = Rate 125 g/ha, 0 to 100 scale (0 no effect, 100 complete control)
[14] = Rate 500 g/ha, 0 to 100 scale where 0 is no effect and 100 is complete control
[15] = Rate 500 g/ha, Postemergence, scale 0 to 10, 0 no effect, 10 complete control
[16] = Rate 1000 g/ha, 0 to 100 scale where 0 is no effect and 100 is complete control
[17] = 0 to 100 scale where 0 is no effect and 100 is complete control
[18] = Rate 1000 g/ha, 0 to 100 scale, 0 no effect, 100 complete control

## CC(=O)OCCCCn1c(=O)on(C(=O)N(c2ccc(F)cc2)C(C)C)c1=O [Compound 211]
Blackgrass [1]; [5]
  Blackgrass plant response rating: 6
Blackgrass [1]; [6]
  Blackgrass plant response rating: 9
Blackgrass [1]; [7]
  Plant response rating, Blackgrass: 9
Blackgrass [1]; [8]
  Blackgrass plant response rating: 2
Blackgrass [1]; [9]
  Blackgrass plant response rating: 3
Blackgrass [1]; [10]
  Blackgrass plant response rating: 9
Blackgrass [1]; Rate 250 g/ha, Postemergence
  Plant response rating (0 to 10; 0 is no effect, 10 is complete control), Blackgrass: 4
Blackgrass [1]; [11]
  Blackgrass plant response rating: 4
Giant foxtail; [5]
  Giant foxtail plant response rating: 3
Giant foxtail; [6]
  Giant foxtail plant response rating: 7
Giant foxtail; [7]
  Plant response rating, Giant foxtail: 8
Giant foxtail; [8]
  Giant foxtail plant response rating: 0
Giant foxtail; [9]
  Giant foxtail plant response rating: 0
Giant foxtail; [10]
  Giant foxtail plant response rating: 4
Giant foxtail; Rate 250 g/ha, Postemergence
  Plant response rating (0 to 10; 0 is no effect, 10 is complete control), Giant foxtail: 2
Giant foxtail; [11]
  Giant foxtail plant response rating: 3
wheat; [5]
  Wheat plant response rating: 0
wheat; [6]
  Wheat plant response rating: 0
wheat; [7]
  Plant response rating, Wheat: 5
wheat; [8]
  Wheat plant response rating: 0
wheat; [9]
  Wheat plant response rating: 0
wheat; [10]
  Wheat plant response rating: 0
wheat; Rate 250 g/ha, Postemergence
  Plant response rating (0 to 10; 0 is no effect, 10 is complete control), Wheat: 0
Purple nutsedge; [8]
  Nutsedge plant response rating: 0
Purple nutsedge; [9]
  Nutsedge plant response rating: 0
Purple nutsedge; Rate 250 g/ha, Postemergence
  Plant response rating (0 to 10; 0 is no effect, 10 is complete control), Nutsedge: 0
Purple nutsedge; [11]
  Nutsedge plant response rating: 0
Winter wheat [2]; Rate 125 g/ha, 0 to 100 scale, 0 is no effect, 100 is complete control
  Plant response rating, Wheat (winter): 20
Winter wheat [2]; [12]
  Plant response rating, Wheat (winter): 40
Blackgrass [3]; [13]
  Plant response rating, Blackgrass: 0
Blackgrass [3]
  Blackgrass plant response rating (0 to 100 scale): 0
Blackgrass [3]; [14]
  Plant response rating, Blackgrass: 50
Green foxtail; [13]
  Plant response rating, Green foxtail: 0
Green foxtail
  Green foxtail plant response rating (0 to 100 scale): 10
Green foxtail; [14]
  Plant response rating, Green foxtail: 20
Italian ryegrass
  I. Ryegrass plant response rating (0 to 100 scale): 0
Italian ryegrass; [14]
  Plant response rating, I. Ryegrass: 10
Winter wheat [4]; [13]
  Plant response rating, Wheat (winter): 50
Winter wheat [4]
  Wheat (winter) plant response rating (0 to 100 scale): 35
Winter wheat [4]; [14]
  Plant response rating, Wheat (winter): 30
Wild oat; [13]
  Plant response rating, Wild oat: 20
Wild oat; [14]
  Plant response rating, Wild oat: 40
Winter barley; [13]
  Plant response rating, Barley (winter): 10
Winter barley
  Barley (winter) plant response rating (0 to 100 scale): 20
Winter barley; [14]
  Plant response rating, Barley (winter): 10

## CC(C)N(C(=O)n1oc(=O)n([C@H](C)c2ccccc2)c1=O)c1ccc(F)cc1F [Compound 238]
Blackgrass [1]; [5]
  Blackgrass plant response rating: 0
Blackgrass [1]; [6]
  Blackgrass plant response rating: 0
Blackgrass [1]; [7]
  Plant response rating, Blackgrass: 0
Blackgrass [1]; [8]
  Blackgrass plant response rating: 0
Blackgrass [1]; [9]
  Blackgrass plant response rating: 0
Blackgrass [1]; [10]
  Blackgrass plant response rating: 0
Blackgrass [1]; Rate 250 g/ha, Postemergence
  Plant response rating (0 to 10; 0 is no effect, 10 is complete control), Blackgrass: 0
Blackgrass [1]; [15]
  Blackgrass plant response rating: 5
Giant foxtail; [5]
  Giant foxtail plant response rating: 5
Giant foxtail; [6]
  Giant foxtail plant response rating: 10
Giant foxtail; [7]
  Plant response rating, Giant foxtail: 10
Giant foxtail; [8]
  Giant foxtail plant response rating: 0
Giant foxtail; [10]
  Giant foxtail plant response rating: 6
Giant foxtail; Rate 250 g/ha, Postemergence
  Plant response rating (0 to 10; 0 is no effect, 10 is complete control), Giant foxtail: 0
Giant foxtail; [15]
  Giant foxtail plant response rating: 2
wheat; [5]
  Wheat plant response rating: 0
wheat; [6]
  Wheat plant response rating: 0
wheat; [7]
  Plant response rating, Wheat: 2
wheat; [8]
  Wheat plant response rating: 0
wheat; [10]
  Wheat plant response rating: 0
wheat; [15]
  Wheat plant response rating: 0
Purple nutsedge; [5]
  Nutsedge plant response rating: 0
Purple nutsedge; [6]
  Nutsedge plant response rating: 0
Purple nutsedge; [8]
  Nutsedge plant response rating: 0
Purple nutsedge; [10]
  Nutsedge plant response rating: 0
Purple nutsedge; Rate 250 g/ha, Postemergence
  Plant response rating (0 to 10; 0 is no effect, 10 is complete control), Nutsedge: 0
Purple nutsedge; [15]
  Nutsedge plant response rating: 0
Winter wheat [2]; [16]
  Plant response rating, Wheat (winter): 40
Winter wheat [2]; [17]
  Wheat (winter) plant response rating: 60
Blackgrass [3]
  Blackgrass plant response rating (0 to 100 scale): 50
Blackgrass [3]; [18]
  Plant response rating, Blackgrass: 75
Green foxtail
  Green foxtail plant response rating (0 to 100 scale): 70
Green foxtail; [18]
  Plant response rating, Green foxtail: 100
Italian ryegrass
  I. Ryegrass plant response rating (0 to 100 scale): 50
Italian ryegrass; [18]
  Plant response rating, I. Ryegrass: 85
Winter wheat [4]
  Wheat (winter) plant response rating (0 to 100 scale): 40
Winter wheat [4]; [18]
  Plant response rating, Wheat (winter): 50
Wild oat
  Wild oat plant response rating (0 to 100 scale): 50
Wild oat; [18]
  Plant response rating, Wild oat: 50
Winter barley
  Barley (winter) plant response rating (0 to 100 scale): 40
Winter barley; [18]
  Plant response rating, Barley (winter): 30

## Cc1ccccc1N(C(=O)n1oc(=O)n(-c2ccccc2C)c1=O)C(C)C [Compound 236]
Blackgrass [1]; [5]
  Blackgrass plant response rating: 0
Blackgrass [1]; [6]
  Blackgrass plant response rating: 5
Blackgrass [1]; [7]
  Plant response rating, Blackgrass: 5
Blackgrass [1]; [8]
  Blackgrass plant response rating: 0
Blackgrass [1]; [9]
  Blackgrass plant response rating: 0
Blackgrass [1]; [10]
  Blackgrass plant response rating: 2
Blackgrass [1]; Rate 250 g/ha, Postemergence
  Plant response rating (0 to 10; 0 is no effect, 10 is complete control), Blackgrass: 0
Blackgrass [1]; [15]
  Blackgrass plant response rating: 0
Giant foxtail; [5]
  Giant foxtail plant response rating: 7
Giant foxtail; [6]
  Giant foxtail plant response rating: 9
Giant foxtail; [7]
  Plant response rating, Giant foxtail: 10
Giant foxtail; [8]
  Giant foxtail plant response rating: 0
Giant foxtail; [9]
  Giant foxtail plant response rating: 0
Giant foxtail; [10]
  Giant foxtail plant response rating: 7
Giant foxtail; Rate 250 g/ha, Postemergence
  Plant response rating (0 to 10; 0 is no effect, 10 is complete control), Giant foxtail: 0
Giant foxtail; [15]
  Giant foxtail plant response rating: 0
wheat; [5]
  Wheat plant response rating: 0
wheat; [6]
  Wheat plant response rating: 0
wheat; [7]
  Plant response rating, Wheat: 0
wheat; [8]
  Wheat plant response rating: 0
wheat; [9]
  Wheat plant response rating: 0
wheat; [10]
  Wheat plant response rating: 0
wheat; Rate 250 g/ha, Postemergence
  Plant response rating (0 to 10; 0 is no effect, 10 is complete control), Wheat: 0
wheat; [15]
  Wheat plant response rating: 0
Purple nutsedge; [8]
  Nutsedge plant response rating: 0
Purple nutsedge; [9]
  Nutsedge plant response rating: 0
Purple nutsedge; Rate 250 g/ha, Postemergence
  Plant response rating (0 to 10; 0 is no effect, 10 is complete control), Nutsedge: 0
Purple nutsedge; [15]
  Nutsedge plant response rating: 0
Winter wheat [2]; [16]
  Plant response rating, Wheat (winter): 10
Winter wheat [2]; [17]
  Wheat (winter) plant response rating: 0
Winter wheat [2]; [12]
  Plant response rating, Wheat (winter): 0
Blackgrass [3]
  Blackgrass plant response rating (0 to 100 scale): 60
Blackgrass [3]; [14]
  Plant response rating, Blackgrass: 60
Blackgrass [3]; [18]
  Plant response rating, Blackgrass: 70
Green foxtail
  Green foxtail plant response rating (0 to 100 scale): 85
Green foxtail; [14]
  Plant response rating, Green foxtail: 100
Green foxtail; [18]
  Plant response rating, Green foxtail: 100
Italian ryegrass
  I. Ryegrass plant response rating (0 to 100 scale): 20
Italian ryegrass; [14]
  Plant response rating, I. Ryegrass: 40
Italian ryegrass; [18]
  Plant response rating, I. Ryegrass: 55
Winter wheat [4]
  Wheat (winter) plant response rating (0 to 100 scale): 0
Winter wheat [4]; [14]
  Plant response rating, Wheat (winter): 10
Winter wheat [4]; [18]
  Plant response rating, Wheat (winter): 20
Wild oat
  Wild oat plant response rating (0 to 100 scale): 20
Wild oat; [14]
  Plant response rating, Wild oat: 30
Wild oat; [18]
  Plant response rating, Wild oat: 50
Winter barley
  Barley (winter) plant response rating (0 to 100 scale): 20
Winter barley; [14]
  Plant response rating, Barley (winter): 40
Winter barley; [18]
  Plant response rating, Barley (winter): 50

Source: patent US6737383B1, “Herbicidal oxadiazolidines” (priority 1999, dated 2004)
